Data as given in patent publication US5001123A, “2,5-diaryl tetrahydrofurans and analogs thereof as PAF antagonists” (Merck & Co., Inc., priority 1989, dated 1991).

System: PAF specific receptor binding site, human platelet membranes
Experiment: inhibition of the binding of [3H] N-methylcarbamoyl-PAF to human platelet membranes
Conditions: trans configuration
Experimental: The compounds of formula (I) inhibit PAF induced functions in both the cellular and tissue levels by changing the PAF binding to its specific receptor site. The ability of a compound of formula (I) to inhibit the PAF binding to its specific receptor binding site on rabbit or human platelet or PMN plasma membranes was measured by a recently developed assay.
The inhibition of ^3 [H]-PAF or ^3 [H]N-methylcarbamoyl-PAF binding to the human or rabbit platelet or PMN plasma membrane by a PAF antagonist of formula (I) was determined by a method employing isotopic labeling and filtration techniques. Generally, a series of Tris buffered solutions of the selected antagonist at predetermined concentrations were prepared. […] Each washed residue was then suspended in 10 ml scintillation solution (Aquasol 2, New England Nuclear, Conn.) and the radioactivity was counted in a Packard Tri-Carb 460CD Liquid Scintillation System. Defining the counts from a test sample as "Total binding with antagonist"; the counts from the control sample C1, as "Total binding C1 "; and the counts from the control sample C2 as "non specific binding C2 ", the percent inhibition of each test antagonist can be determined by the following equations: [formula] […]

CCCOc1c(OCC(O)CN2CCOCC2)cc([C@@H]2CC[C@@H](c3cnc(OC)c(OC)c3)O2)cc1S(=O)(=O)CC(C)O (stereo partly drawn) [Example 3, trans-2-[3-(2-Hydroxypropyl)sulfonyl-4-n-propoxy-5-(3-1-morpholino-2-hydroxypropoxy)phenyl]-5-[5-(2,3-dimethoxy)pyridyl]tetrahydrofuran]
% inhibition of the binding of [3H] Nmethylcarbamoyl-PAF to human platelet membranes (3 nM): 11%
% inhibition of the binding of [3H] Nmethylcarbamoyl-PAF to human platelet membranes (30 nM): 39%
